Test results from US8637237B2, “Methods, compositions, and systems for the identification of species-specific or developmental stage-specific insecticides” (The University of North Carolina at Greensboro, priority 2003, dated 2014).

Tests used:
EcRB2/USP = biological target: T1, EcRB2/USP (Drosophila melanogaster, UniProt P34021); test: EcRB2 isoform with USP (VP16CfUSP), (EcRE)5-ΔMTV-LUC in CHO cells; format: cell-based
T1 construct: The plasmid encodes a version of EcRB2 that includes 669 amino acids, and deletes the F domain; expressed in transfected cells; host or cells: CHO
T1 sequence (P34021 1-669 isoform P34021-3): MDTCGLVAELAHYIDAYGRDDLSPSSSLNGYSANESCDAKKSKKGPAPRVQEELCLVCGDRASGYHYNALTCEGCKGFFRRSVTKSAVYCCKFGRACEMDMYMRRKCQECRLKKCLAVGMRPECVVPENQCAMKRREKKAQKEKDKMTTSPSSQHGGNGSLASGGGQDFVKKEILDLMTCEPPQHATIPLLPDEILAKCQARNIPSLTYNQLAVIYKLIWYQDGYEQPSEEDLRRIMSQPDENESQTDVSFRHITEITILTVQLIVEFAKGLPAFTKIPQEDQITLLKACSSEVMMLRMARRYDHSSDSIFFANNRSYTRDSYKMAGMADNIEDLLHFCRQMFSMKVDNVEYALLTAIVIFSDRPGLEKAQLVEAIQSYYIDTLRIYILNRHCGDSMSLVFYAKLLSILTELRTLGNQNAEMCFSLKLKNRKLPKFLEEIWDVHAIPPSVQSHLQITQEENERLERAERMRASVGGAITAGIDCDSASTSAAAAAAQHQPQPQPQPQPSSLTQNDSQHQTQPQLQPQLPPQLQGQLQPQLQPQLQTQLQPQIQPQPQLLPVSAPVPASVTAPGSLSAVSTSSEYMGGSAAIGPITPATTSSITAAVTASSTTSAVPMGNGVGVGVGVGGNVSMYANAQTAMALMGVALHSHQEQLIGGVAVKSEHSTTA
T1 sequence (O76202 192-472 partner): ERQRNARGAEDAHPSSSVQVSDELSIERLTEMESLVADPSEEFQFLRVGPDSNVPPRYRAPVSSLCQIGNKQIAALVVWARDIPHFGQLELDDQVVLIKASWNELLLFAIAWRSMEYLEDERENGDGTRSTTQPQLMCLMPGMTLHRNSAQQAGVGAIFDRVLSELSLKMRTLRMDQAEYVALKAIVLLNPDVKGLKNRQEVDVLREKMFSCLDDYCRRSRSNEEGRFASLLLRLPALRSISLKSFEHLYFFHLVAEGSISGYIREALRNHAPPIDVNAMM
Method: (§1) These experiments employed a mammalian cell culture system using Chinese hamster ovary cells (CHO) to evaluate the transcriptional function of Drosophila melanogaster EcR and USP using methods described previously (U.S. Patent Application Publication No: 2005/0049230; Henrich et al, 2003). Cells were seeded in 6-well polypropylene culture plates (Falcon) with 10^5 cells per well on the day prior to transfection. Transfection was subsequently performed using either calcium phosphate (Kitareewan et al., 1996, Mol. Biol. Cell, 7:1153-1196) or a GenePorter reagent (Gene Therapy Systems, Inc; San Diego, Calif.) following manufacturer's protocols. Each well received 1.25 μg of (EcRE)5-ΔMTV-CAT (five copies of the hsp27 EcRE inserted into an mouse mammary tumor virus (MTV) promoter upstream of the chloramphenicol acetyltransferase (CAT) gene) or (EcRE)5-ΔMTV-LUC (the same promoter attached to firefly luciferase), 1.25 μg of pCH111 (SV40 early promoter linked to the β-galactosidase gene) to normalize CAT activity, and 0.25 μg of each expression plasmid (EcR, FXR, RXR, USP) that was tested. The cells were incubated with plasmid DNA for seven hours and then washed with 1×PBS. Muristerone A (murA; Alexis Biochemicals) or 20-hydroxyecdysone (20E; Sigma) dissolved in ethanol to a concentration of 10 mM was diluted as necessary to the final assay concentration (FAC) in 2 ml of fresh incubation medium that was then applied to the cells. Similarly, JHIII (Sigma) was dissolved in dimethyl sulfoxide (DMSO) to a concentration of […] and diluted into the incubation medium to its final assay concentration (20, 40, 80, 160 μM). […] A corresponding volume of ethanol and DMSO were added to control cells for all experiments. For all experiments, the cells were allowed to incubate with the medium for 24 hours before collection and cell lysates were prepared by described methods (Kitareewan et al., 1996). Both β-galactosidase and CAT reporter activity were measured based on previously used methods (Kitareewan et al, 1996). Luciferase assays using luciferrin followed the specifications of the manufacturer.
(§2) Transcriptional activity, measured as ^14C-chloramphenicol counts (for measuring CAT activity) or relative luciferase activity (RLU) was quantified for each cell lysate. The counts were then normalized by adjusting for differences in β-galactosidase activity, since β-galactosidase expression is controlled by a constitutive promoter and provides an estimate of cell mass. Data were normalized as fold-induction based on differences in reporter gene activity between hormonally treated and control cells.

EcRA/USP = biological target: T2, EcRA/USP (Drosophila melanogaster, UniProt P34021); test: EcRA isoform with USP (VP16CfUSP), (EcRE)5-ΔMTV-LUC in CHO cells; format: cell-based
T2 construct: The plasmid encodes a version of EcRA that includes 849 amino acids, and deletes the F domain; expressed in transfected cells; host or cells: CHO
T2 sequence (P34021 1-849 isoform P34021-2): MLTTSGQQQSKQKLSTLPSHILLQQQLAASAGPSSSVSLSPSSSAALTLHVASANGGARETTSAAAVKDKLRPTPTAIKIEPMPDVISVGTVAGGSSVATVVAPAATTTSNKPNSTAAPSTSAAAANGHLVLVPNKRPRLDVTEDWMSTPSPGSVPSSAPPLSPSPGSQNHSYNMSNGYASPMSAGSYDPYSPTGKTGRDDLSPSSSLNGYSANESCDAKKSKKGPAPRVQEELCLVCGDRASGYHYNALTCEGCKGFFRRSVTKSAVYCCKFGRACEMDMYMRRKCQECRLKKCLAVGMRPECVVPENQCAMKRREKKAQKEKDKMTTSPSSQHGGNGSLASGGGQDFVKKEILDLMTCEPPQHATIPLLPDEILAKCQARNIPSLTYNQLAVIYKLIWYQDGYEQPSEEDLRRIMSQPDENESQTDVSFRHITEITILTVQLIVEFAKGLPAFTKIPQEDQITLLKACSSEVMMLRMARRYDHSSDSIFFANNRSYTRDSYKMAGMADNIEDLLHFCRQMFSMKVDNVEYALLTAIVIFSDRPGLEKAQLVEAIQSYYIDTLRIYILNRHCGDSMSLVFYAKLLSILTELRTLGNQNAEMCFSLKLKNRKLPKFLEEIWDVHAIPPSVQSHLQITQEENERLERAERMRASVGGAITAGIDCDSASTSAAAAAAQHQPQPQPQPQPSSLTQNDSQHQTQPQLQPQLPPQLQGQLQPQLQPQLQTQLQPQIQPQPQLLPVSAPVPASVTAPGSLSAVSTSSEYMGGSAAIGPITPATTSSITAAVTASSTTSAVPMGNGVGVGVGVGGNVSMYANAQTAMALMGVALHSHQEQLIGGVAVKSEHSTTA
T2 sequence (O76202 192-472 partner): T1 sequence (O76202 192-472 partner)
Method: as §1, §2

CC(C)(O)CC[C@@H](O)[C@](C)(O)[C@H]1CC[C@@]2(O)C3=CC(=O)[C@@H]4C[C@@H](O)[C@@H](O)C[C@]4(C)[C@H]3CC[C@]12C [20E, 20-hydroxyecdysone]
transcriptional response to 20E (EcRB2/USP; EcRB2 + VP16CfUSP, 10 μM 20E): consistent and discernible transcriptional response
20E (inducibility) (EcRB2/USP; EcRB2/USP, 10 μM 20E): + ((+) designates a change in transcriptional level that exceeds 2.5-fold)
transcriptional response to 20E (EcRA/USP; EcRA + VP16CfUSP, 10 μM 20E): consistent and discernible transcriptional response
20E (inducibility) (EcRA/USP; EcRA/USP, 10 μM 20E): + ((+) designates a change in transcriptional level that exceeds 2.5-fold)

COC(=O)/C=C(\C)CC/C=C(\C)CC[C@H]1OC1(C)C [JHIII, juvenile hormone III]
potentiation of 20E response by JHIII (EcRB2/USP; EcRB2 + VP16CfUSP, 10 μM 20E plus JHIII): potentiated significantly
potentiation of murA response by JHIII (EcRB2/USP; EcRB2 + VP16CfUSP, 80 μM JHIII with 0.1 μM murA): potentiated
MurA + JHIII (JHIII potentiation) (EcRB2/USP; EcRB2/USP, 0.1 μM murA + 80 μM JHIII): + ((+) indicates observed potentiation that exceeds 2-fold above the levels observed with ecdysteroid alone)
20E + JHIII (JHIII potentiation) (EcRB2/USP; EcRB2/USP, 10 μM 20E + 80 μM JHIII): + ((+) indicates observed potentiation that exceeds 2-fold above the levels observed with ecdysteroid alone)
potentiation of murA response by JHIII (EcRA/USP; EcRA + VP16CfUSP, 80 μM JHIII with 0.1 μM murA): potentiated
MurA + JHIII (JHIII potentiation) (EcRA/USP; EcRA/USP, 0.1 μM murA + 80 μM JHIII): + ((+) indicates observed potentiation that exceeds 2-fold above the levels observed with ecdysteroid alone)

CC(C)CC[C@@H](O)[C@](C)(O)[C@H]1CC[C@@]2(O)C3=CC(=O)[C@]4(O)C[C@@H](O)[C@@H](O)C[C@]4(C)[C@H]3[C@H](O)C[C@]12C [murA, muristerone A]
induction by murA (EcRB2/USP; EcRB2 + VP16CfUSP, 1 μM murA): 30-40 fold
MurA (inducibility) (EcRB2/USP; EcRB2/USP, 0.1 μM murA): + ((+) designates a change in transcriptional level that exceeds 2.5-fold)
induction by murA (EcRA/USP; EcRA + VP16CfUSP, 1 μM murA): 30-40 fold
MurA (inducibility) (EcRA/USP; EcRA/USP, 0.1 μM murA): + ((+) designates a change in transcriptional level that exceeds 2.5-fold)
